Measurements as given in patent US4794113A, “Imidazolyl phenoxy compounds and method of use” (Yamanouchi Pharmaceutical Co., Ltd., priority 1983, dated 1988).

Key:
[1] = tested on: platelet aggregation induced by arachidonic acid; assay: Platelet Aggregation Prevention Activity (arachidonic acid induced, platelet rich plasma); assay type: cell-based, Nippon white rabbit; settings: compound 100 μM; arachidonic acid final concentration 0.2 mM; rabbit PRP
Experimental: Platelet rich plasma (PRP) and platelet poor plasma (PPP) were prepared from venous blood of Nippon white rabbit. The platelet aggregation activity was measured in accordance with the method described in Born, G. V. R.; Nature, 194, 927 (1962) and the activity of preventing platelet agglutination of the compound against platelet aggregation induced by arachidonic acid (final concentration, 0.2 mM) was determined with an Aggrigometer (made by Payton Co.).

Hyperlipedemic rat = assay: Lipid Reducing Activity (cholesterol/bile acid fed hyperlipidemic rats, serum lipids); assay type: in vivo, male Sprague-Dawley rats; settings: 100 mg/kg/day p.o., 4 days; for HDL-C/LDL-C (cont. = 1): relative to control; for HDL-Chol** (cont. = 1): relative to control = 1
Experimental: Feed containing 1.5% cholesterol and 0.5% bile acid was given to male Sprague-Dawley rats aging 4 weeks old after birth for 7 days. A suspension of the compound of the present invention in a 0.5% aqueous methyl cellulose solution was administered daily via oral catheter for 4 days. After fastening overnight, blood was collected under ether anesthesia to determine the quantities of the total HDL and cholesterol in serum. The measurements of cholesterol and HDL were performed in accordance with the method described in Schettler, G. & Hussel; Arbetsmed. Sozialmed. Praventived., 10, 25 (1975) and the method described in T. T. Ishikawa et al.; Lipids, 11, 628 (1976), respectively.

| SMILES | Platelet Aggregation inhibition (%) A.A. [1] [%] | Reduction Rate of T* and Chol** (*triglyceride, **cholesterol) (Hyperlipedemic rat) [%] | HDL-C/LDL-C (cont. = 1) (Hyperlipedemic rat) | HDL-Chol** (cont. = 1) (Hyperlipedemic rat) |
| --- | --- | --- | --- | --- |
| CCOC(=O)C(C)(C)CCCCCOc1ccc(-c2csc(-c3cccnc3)n2)cc1 [Example 2, ethyl 2,2-dimethyl-7-[p-[2-(3-pyridyl)-4-thiazolyl]phenoxy]heptanoate] | 16 | 59 | 22 | 7.62 |
| CCOC(=O)C(C)(C)CCCOc1ccc(-c2csc(C)n2)cc1 [Example 5, ethyl 5-[p-(2-methyl-4-thiazolyl)phenoxy]-2,2-dimethylpentanoate] | 50 | 69 | 8.00 | 1.54 |
| CCOC(=O)C(C)(C)CCCCOc1ccc(OCCCCCn2ccnc2)cc1 [Example 30, ethyl 6-[p-[5-(1-imidazolyl)pentyloxy]phenoxy]-2,2-dimethylhexanoate] | 57 | 48 | 5.00 | 1.78 |
| CCOC(=O)C(C)(C)CCCCOc1ccc(NC(=O)CCCn2ccnc2)cc1 [Example 35, Ethyl-6-[p-[4-(1-imidazolyl)-butyramido]phenoxy]-2,2-dimethylhexanoate] | 7 | 52 | 5.4 | 2.49 |
| CCOC(=O)C(C)(C)CCCCCOc1ccc(NC(=O)CCCCn2ccnc2)cc1 [Example 39] | 100 | 23 | 4.1 | 3.11 |
